Reference: article PMC4457840, “Differential Inhibition of Signal Peptide Peptidase Family Members by Established γ-Secretase Inhibitors” (PLoS ONE, 2015)
Entries after “also recorded” stand apart in the source; their conditions may differ. Numbered stars: 1 amine (or outer) side, 2 acyl side, 3 side chain; on linkers, the order of the positions; unused ones are H or OH. Square brackets hold non-standard residues; d marks the D form. Peptide text beside a SMILES is read from it. * marks the point of attachment. X1 = CC(N[*:1])C(=O)C(F)(F)C(=O)[*:2]; Boc = CC(C)(C)OC(=O)*

Experiments:
hSPP = target: T1, hSPP (Homo sapiens, UniProt Q8TCT9); assay: FBA/hSPP co-transfected HEK 293T cell cleavage assay (Aβ ELISA, Western blot, IP/MS); format: cell-based; conditions: for inhibition of xAβ1-25/K16A secretion (in words) / inhibition at 25 µM: 25 μM, ELISA; for inhibition of FBA cleavage by Western blot: Fig 3C lower panel; for IC50: HEK cells, 24 h, xAβ1-25/K16A by Aβ ELISA, mean ± standard error, read-out: IC50 on FBA/SPPL co-transfected cells; for inhibition at 25 µM: DMSO = 100%, read-out: inhibition of the SPP/SPPLs; for rank order of inhibition: number in parenthesis in Table 3
T1 construct: expressed in transfected cells; host or cells: HEK 293T
T1 sequence (Q8TCT9 1-377): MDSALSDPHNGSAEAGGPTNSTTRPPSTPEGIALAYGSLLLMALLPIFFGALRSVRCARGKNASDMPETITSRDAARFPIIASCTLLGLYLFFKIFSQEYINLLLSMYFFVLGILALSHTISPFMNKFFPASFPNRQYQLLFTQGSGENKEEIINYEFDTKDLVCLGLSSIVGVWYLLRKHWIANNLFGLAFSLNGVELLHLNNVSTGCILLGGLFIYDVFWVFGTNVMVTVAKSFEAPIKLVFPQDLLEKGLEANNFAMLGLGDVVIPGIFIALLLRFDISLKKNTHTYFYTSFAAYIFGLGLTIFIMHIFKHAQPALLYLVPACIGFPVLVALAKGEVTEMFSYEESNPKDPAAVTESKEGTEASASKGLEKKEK
Description: (§1) Expression constructs in pcDNA6 for COOH-terminal FLAG (DYKDDDDK) and strep (WSHPQFEK) tagged SPPL2a, SPPL2b, hSPP and pSPP were generated as previously described. Untagged versions of all enzymes were also made and ligated into the pAG3 vector. Substrates (Fig 1) were designed as follows: FLAG-BRI2_1-81- Aβ1-25/K16A (FBA). The K16A mutation was incorporated to prevent potential α-secretase cleavage that would preclude ELISA based detection of the released COOH-terminal fragment. The substrate DNA was cloned into the expression vector pcDNA6. Constructs were confirmed by DNA sequencing. The overexpression of substrates was performed by transiently transfecting human embryonic kidney (HEK 293T) cells with or without SPP/SPPL vectors. Cells were grown in DMEM media supplemented with Hyclone 10% fetal bovine serum (GE, Logan, Utah, USA) and 1% penicillin/streptomycin (Life Technologies, Grand Island, NY, USA). Briefly, 2.7 μg DNA was applied to a 75% confluent 6 well plate (Corning, Tewksbury, MA, USA) using the polycation polyethylenimine (PEI) transfection method. Inhibitor testing experiments were conducted in 48 well plates with appropriately adjusted amounts of DNA and PEI and incubated 12–16 hours, after which the growth medium was replaced with fresh medium. DMSO (Sigma, St. Louis, MO, USA) and GSIs were added at the appropriate concentration. The GSIs, L685,458 and Compound W were purchased from Tocris (Tocris, Bristol, UK). (Z-LL)2 ketone, Compound E, DAPT, GSI II were purchased from Calbiochem (Merck Millipore, Billerica, MA, USA). LY-411,575 was synthesized by A. Fauq at the Mayo Clinic Chemical Core. Twenty-four hours later, the medium was collected for assay by ELISA and MS. A20 cells (TIB-208) (ATCC, Manassas, VA, USA) were cultured in RPMI-1640 medium (ATCC) supplied with 10% fetal bovine serum, 1% penicillin/streptomycin and 0.05 mM 2-mercaptoethanol (Life Technologies). At the density of 5x10^5 cells/ml, A20 cells were spun down at 1000 g for 2 min and resuspended in fresh medium supplied with DMSO or GSIs and incubated for 16 hr.
(§2) Sandwich ELISAs used for Aβ detection were performed as previously described. Briefly, Aβ and Aβ adducts with substrate TMD in conditioned media was captured with Ab5 antibody (human Aβ1–16 specific) and detected with horseradish peroxidase mAb 4G8 (Covance, Princeton, NJ, USA). Synthetic Aβ1–40 was used as standard. All ELISAs were developed with TMB substrate (KPL, Gaithersburg, Maryland, USA). Bis-Tris precast gels (Biorad, Hercules, CA, USA) were used for all SDS-PAGE. Monoclonal anti-FLAG M2 antibody (Sigma) and Aβ1–16 antibody 6E10 (Covance) were used for Western blotting. Antisera against SPPL2a, SPPL2b, hSPP and pSPP were generated as previously described and were used at dilution of 1:1000 for Western blotting. Anti-CD74 In-1 antibody (BD Bioscience, San Jose, CA, USA) was used for A20 cell lysate Western blotting at dilution of 1:1000.
(§3) Immunoprecipitation and mass spectrometry of xAβ1–25 in conditioned media were performed as previously described. In this study, 10 ml conditioned media were used for each experiment. ICDs were immunoprecipitated with anti-FLAG M2 magnetic beads. Cells from 10 cm dished treated with DMSO or 20 μM LY-411,575 were used for each test.

SPPL2b = target: T2, SPPL2b (Homo sapiens, UniProt Q8TCT7); assay: FBA/SPPL2b co-transfected HEK 293T cell cleavage assay (Aβ ELISA, Western blot, IP/MS); format: cell-based; conditions: for inhibition of xAβ1-25/K16A secretion (in words) / inhibition at 25 µM: 25 μM, ELISA; for inhibition of FBA cleavage (10 kD ICD) by Western blot: Fig 3C upper panel; for IC50: HEK cells, 24 h, xAβ1-25/K16A by Aβ ELISA, mean ± standard error, read-out: IC50 on FBA/SPPL co-transfected cells; for inhibition at 25 µM: DMSO = 100%, read-out: inhibition of the SPP/SPPLs; for rank order of inhibition: number in parenthesis in Table 3
T2 construct: expressed in transfected cells; host or cells: HEK 293T
T2 sequence (Q8TCT7 26-592): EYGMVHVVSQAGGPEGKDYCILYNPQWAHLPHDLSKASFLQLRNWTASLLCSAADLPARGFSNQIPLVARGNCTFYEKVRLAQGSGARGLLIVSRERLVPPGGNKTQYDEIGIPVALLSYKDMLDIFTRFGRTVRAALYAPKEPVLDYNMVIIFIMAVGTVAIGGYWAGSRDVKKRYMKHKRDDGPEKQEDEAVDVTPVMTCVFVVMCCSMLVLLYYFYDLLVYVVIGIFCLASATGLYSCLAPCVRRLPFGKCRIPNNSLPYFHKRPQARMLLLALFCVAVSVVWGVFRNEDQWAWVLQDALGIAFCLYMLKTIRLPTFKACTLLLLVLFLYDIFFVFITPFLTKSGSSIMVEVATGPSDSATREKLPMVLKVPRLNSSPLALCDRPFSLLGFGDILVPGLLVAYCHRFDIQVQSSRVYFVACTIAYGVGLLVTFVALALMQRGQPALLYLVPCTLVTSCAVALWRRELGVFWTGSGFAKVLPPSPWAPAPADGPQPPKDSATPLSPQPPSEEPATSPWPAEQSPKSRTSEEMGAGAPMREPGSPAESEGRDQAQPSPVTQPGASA
Description: as §1, §2, §3

[1] = 10 μM, Western blot anti-FLAG M2
[2] = HEK-293T, 10 μM, overnight, Aβ ELISA

SMILES | FBA cleavage by co-transfected SPPL (in words) (hSPP; 10 μM, Aβ ELISA, Fig 1D) | generation of the SPP/SPPL dependent 10 kDa ICD (hSPP; [1]) | inhibition of xAβ1-25/K16A secretion (in words) (hSPP) | inhibition of FBA cleavage by Western blot (hSPP) | IC50 (hSPP) [µM] | inhibition at 10 µM (hSPP; [2]) [%] | inhibition at 25 µM (hSPP; HEK-293T) [%] | rank order of inhibition (hSPP) | FBA cleavage by co-transfected SPPL (in words) (SPPL2b; 10 μM, Aβ ELISA, Fig 1D) | generation of the SPP/SPPL dependent 10 kDa ICD (SPPL2b; [1]) | inhibition of xAβ1-25/K16A secretion (in words) (SPPL2b) | inhibition of FBA cleavage (10 kD ICD) by Western blot (SPPL2b) | IC50 (SPPL2b) [µM] | inhibition at 10 µM (SPPL2b; [2]) [%] | inhibition at 25 µM (SPPL2b; HEK-293T) [%] | rank order of inhibition (SPPL2b) | inhibition of xAβ1-25/K16A secretion (in words) (hSPP; listed as Comp E) | cleavage products in conditioned media by IP/MS (hSPP; 20 μM) | cleavage products in conditioned media by IP/MS (SPPL2b; 20 μM)
CC(C)C[C@H](NC(=O)OCc1ccccc1)C(=O)N[C@@H](CC(C)C)C(=O)NCC(=O)CNC(=O)[C@H](CC(C)C)NC(=O)[C@H](CC(C)C)NC(=O)OCc1ccccc1 [(Z-LL)2 ketone] | largely inhibited | significantly reduced | largely inhibited | efficiently inhibited | 0.519 ± 0.097 | > 75 | > 90 | 4 | largely inhibited | significantly reduced | largely inhibited | greatly inhibit | 2.14 ± 0.143 | > 75 | > 90 | 2 |  |  | 
C[C@H](NC(=O)Cc1cc(F)cc(F)c1)C(=O)N[C@H]1N=C(c2ccccc2)c2ccccc2N(C)C1=O [Compound E] |  |  | inhibited; also recorded: selectively inhibit hSPP cleavage | efficiently inhibited | 1.47 ± 0.093 |  |  |  |  |  | did not show inhibition | negligible effect |  |  |  |  | selectively inhibit hSPP |  | 
C[C@H](NC(=O)Cc1cc(F)cc(F)c1)C(=O)NC(C(=O)OC(C)(C)C)c1ccccc1 (stereo partly drawn) [DAPT] |  |  | does not inhibit |  |  |  |  |  |  |  | does not inhibit | slightly reduce |  |  |  |  |  |  | 
CC[C@H](C)[C@H](NC(=O)[C@@H](NC(=O)OC(C)(C)C)C(C)C)C(=O)NC(C)C(=O)C(F)(F)C(=O)N[C@H](C(=O)N[C@H](C(=O)OC)[C@@H](C)CC)C(C)C (stereo partly drawn) [GSI II] (Boc-VI[X1]VI-OMe) |  |  | efficiently inhibited; also recorded: largely inhibited | efficiently inhibited | 0.423 ± 0.092 |  |  | 3 |  |  | efficiently inhibited; also recorded: largely inhibited | greatly inhibit | 3.6 ± 0.121 |  |  | 3 |  |  | 
C[C@H](NC(=O)[C@@H](O)c1cc(F)cc(F)c1)C(=O)N[C@@H]1C(=O)N(C)c2ccccc2-c2ccccc21 [LY-411,575] |  |  | largely inhibited | efficiently inhibited | 0.15 ± 0.106 |  | > 90 | 1 |  |  | largely inhibited | greatly inhibit | 5.5 ± 0.122 |  | > 90 | 4 |  | No major cleavage product was detected | No major cleavage product was detected
